Assay results taken from patent US8822485B2, “Amino heteroaryl compounds as beta-secretase modulators and methods of use” (Amgen Inc., priority 2010, dated 2014).

Experiments:
[1] = system: Aβ40 in conditioned medium of cells stably expressing Amyloid Precursor Protein (APP) (HEK cell); assay: In vitro BACE cell-based assay (HEK cell assay, Aβ40 sandwich ELISA); conditions: Homo sapiens, HEK293; IC50 range class; inhibition of Aβ40 after 24 h incubation
Method: In Vitro BACE Cell-Based Assay:
The cell-based assay measures inhibition or reduction of Aβ40 □ in conditioned medium of test compound treated cells expressing amyloid precursor protein.
Cells stably expressing Amyloid Precursor Protein (APP) were plated at a density of 40K cells/well in 96 well plates (Costar). The cells were cultivated for 24 hours at 37° C. and 5% CO2 in DMEM supplemented with 10% FBS. The test compounds were then added to cells in 10-point dose response concentrations with the starting concentration being either 100 μM or 10 μM. The compounds were diluted from stock solutions in DMSO and the final DMSO concentration of the test compounds on cells was 0.1%. After 24 h of incubation with the test compounds the supernatant conditioned media was collected and the Aβ 40 levels were determined using a sandwich ELISA. The IC50 of the compound was calculated from the percent of control or percent inhibition of Aβ40 as a function of the concentration of the test compound.
The sandwich ELISA to detect Aβ 40 was performed in 96 well microtiter plates, which were pre-treated with goat anti-rabbit IgG (Pierce). The capture and detecting antibody pair that were used to detect Aβ 40 from cell supernatants were affinity purified pAb40 (Biosource) and biotinylated 6E10 (Signet Labs Inc.), respectively. The optimal concentration for the pAb40 antibody was 3 μg/ml in Superblock/TBS (Pierce) that was supplemented with 0.05% Tween 20 (Sigma). Optimal concentration for the detection antibody 6E10-biotinylated was 0.5 μg/ml in Superblock/TBS (Pierce) that had been supplemented with 2% normal goat serum and 2% normal mouse serum.
Cellular supernatants were incubated with the capture antibody for 3 h at 4° C., followed by 3 wash steps in TBS-tween (0.05%). The detecting antibody incubation was for 2 h at 4° C., again followed by the wash steps as described previously. The final readout of the ELISA is Time-Resolved Fluorescence (counts per minute) using Delfia reagents Streptavidin-Europium and Enhancement solutions (Perkin Elmer) and the Victor 2 multilabel counter (Perkin Elmer).
Of the compounds tested, the cell based assay data for each of Examples 1-33, where available at the time of filing this application, is provided in Table 1.

BACE1 = BACE1 (Homo sapiens, UniProt P56817); assay: In vitro enzymatic BACE FRET assay; format: biochemical; conditions: IC50 range class; 0.2 nM enzyme, 50 nM FRET substrate, pH 4.2
BACE1, sequence (P56817 46-501, species assumed): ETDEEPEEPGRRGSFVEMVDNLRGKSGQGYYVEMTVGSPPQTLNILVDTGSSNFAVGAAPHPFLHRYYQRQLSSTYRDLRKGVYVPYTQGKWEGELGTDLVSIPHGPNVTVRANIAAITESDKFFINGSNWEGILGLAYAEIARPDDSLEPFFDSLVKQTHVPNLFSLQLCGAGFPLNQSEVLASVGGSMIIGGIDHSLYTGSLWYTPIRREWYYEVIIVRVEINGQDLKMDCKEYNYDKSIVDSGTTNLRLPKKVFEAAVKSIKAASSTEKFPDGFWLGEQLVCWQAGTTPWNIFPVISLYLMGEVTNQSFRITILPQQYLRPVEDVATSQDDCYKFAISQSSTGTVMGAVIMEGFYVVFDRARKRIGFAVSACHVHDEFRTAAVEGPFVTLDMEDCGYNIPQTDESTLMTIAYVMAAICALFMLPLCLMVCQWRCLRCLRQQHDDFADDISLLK
Method: In Vitro Enzymatic BACE FRET (Fluorescence Resonance Energy Transfer) Assay (Enzyme Assay Data in Table 1)
The assay buffer used in this screen is 0.05 M acetate, pH 4.2, 10% DMSO final, 100 uM genapol (which is a nonionic detergent, below its Critical Micelle Concentration). The Beta Secretase enzyme (0.2 nM) is pre-incubated for one hour with inhibitors, typically in about 1 uL of DMSO according to a serial dilution, are added thereto. The assay is effectively started by the addition of FRET substrate (50 nM) and the combination is incubated for one hour. The FRET assay is terminated with by addition of Tris buffer, which raises the pH to neutrality, and the fluorescence is determined. The FRET substrate is a peptide with commercially available fluorophore and quencher, on opposite sides of the BACE cleavage site. Proteolytic cleavage of the FRET substrate releases quenching of fluorescence (excitation […] and […]).
Of the compounds tested, the in-vitro BACE FRET enzyme data for each of Examples 1-33, where available at the time of filing this application, is provided in Table 1.

IC50 (BACE1): 100 to 1000 nM
SMILES: Cc1cccc(C(=O)N2CCCC2)c1-c1ccc2nc(N)c(COc3cc(C(F)(F)F)ncn3)cc2c1 [Example 34, (2-(2-amino-3-((6-(trifluoromethyl)pyrimidin-4-yloxy)methyl)quinolin-6-yl)-3-methylphenyl)(pyrrolidin-1-yl)methanone]
IC50 [1]: 1000 to 5000 nM
